Results published in patent US11252960B2 (KIMBERLY-CLARK WORLDWIDE, INC., priority 2017, dated 2022).

Tests used:
[1] = system: Staphylococcus aureus (ATCC 6538); test: Anti-bacterial Minimum Inhibitory Concentration (MIC) Method, microbroth dilution; assay type: cell-based; conditions: CAMHB, 37° C., 24 hours, pH 4.5-adjusted stock
Procedure: (§1) Anti-Bacterial and Anti-Fungal Minimum Inhibitory Concentration (MIC) Method Method: Microbroth Dilution Method (96-well format). Test item: […] Solvent: Sterile MilliQ water and 0.1 M Citrate Buffer pH 4.5 Media used: • Bacterial: Cation-Adjusted Mueller-Hinton Broth (CAMHB) • Fungi: RPMI-1640 […] Fungi: • Incubation Temperature: • 25° C. (Candida albicans) • 35° C. (Aspergillus brasiliensis) • Incubation Time: 48 hours • Inoculum Size: 5×10^4 cfu/mL • Strains: • Candida albicans (ATCC 10231) • Aspergillus brasiliensis (ATCC 16404) • End point: Inhibition of growth, Spectrophotometer Reading @ 600 nm • Reference standards: […] All solubilized and pH 4.5-adjusted test compounds were filter-sterilized before subjecting to MIC study. […] All the strains were inoculated on their respective agar medium and incubated under conditions/durations detailed above. • Preparation of inoculum: • The bacterial colony suspension in 0.85% saline was adjusted to 1 McFarland's standard using […] which was further diluted to 1:100 in CAMHB. The fungal suspension for inoculation was prepared in 0.85% saline from 6 days old culture (for mold, A. brasiliensis) and from 2 days old culture (for yeast, C. albicans) from Sabouraud Dextrose agar medium. […] Micro titer plates were prepared as per the CLSI recommendations. One hundred and seventy five microliters of Cation-adjusted Muller Hinton Broth (CAMHB) was added to the first column of a 96 well flat bottom plate, which is the media control. Second column is for the stocks of the test compounds and reference standards from which dilutions are made. Then 175 μL of CAMHB was added to the 5th, 8th and 11th columns, 75 μL of CAMHB to the 4th, 7th and 10th columns and 50 μL of CAMHB to the 3rd, 6th and 9th columns and the last column was the organism control.

[2] = system: Pseudomonas aeruginosa (ATCC 9027); test: as above; assay type: cell-based; conditions: CAMHB, 37° C., 24 hours, pH 4.5-adjusted stock
Procedure: as §1

[3] = system: Burkholderia cepacia (ATCC 25416); test: as above; assay type: cell-based; conditions: CAMHB, 37° C., 24 hours, pH 4.5-adjusted stock
Procedure: as §1

[4] = system: Escherichia coli (ATCC 8739); test: as above; assay type: cell-based; conditions: CAMHB, 37° C., 24 hours, pH 4.5-adjusted stock
Procedure: as §1

[5] = system: Aspergillus brasiliensis (ATCC 16404); test: Anti-fungal Minimum Inhibitory Concentration (MIC) Method, microbroth dilution; assay type: cell-based; conditions: RPMI-1640, 35° C., 48 hours, pH 4.5-adjusted stock
Procedure: (§2) Anti-Bacterial and Anti-Fungal Minimum Inhibitory Concentration (MIC) Method Method: Microbroth Dilution Method (96-well format). Test item: […] Solvent: Sterile MilliQ water and 0.1 M Citrate Buffer pH 4.5 Media used: • Bacterial: Cation-Adjusted Mueller-Hinton Broth (CAMHB) • Fungi: RPMI-1640 Fungi: • Incubation Temperature: • 25° C. (Candida albicans) • 35° C. (Aspergillus brasiliensis) • Incubation Time: 48 hours • Inoculum Size: 5×10^4 cfu/mL • Strains: • Candida albicans (ATCC 10231) • Aspergillus brasiliensis (ATCC 16404) • End point: Inhibition of growth, Spectrophotometer Reading @ 600 nm • Reference standards: […] All solubilized and pH 4.5-adjusted test compounds were filter-sterilized before subjecting to MIC study. […] All the strains were inoculated on their respective agar medium and incubated under conditions/durations detailed above. • Preparation of inoculum: • The bacterial colony suspension in 0.85% saline was adjusted to 1 McFarland's standard using […] which was further diluted to 1:100 in CAMHB. The fungal suspension for inoculation was prepared in 0.85% saline from 6 days old culture (for mold, A. brasiliensis) and from 2 days old culture (for yeast, C. albicans) from Sabouraud Dextrose agar medium. […] Micro titer plates were prepared as per the CLSI recommendations. One hundred and seventy five microliters of Cation-adjusted Muller Hinton Broth (CAMHB) was added to the first column of a 96 well flat bottom plate, which is the media control. Second column is for the stocks of the test compounds and reference standards from which dilutions are made. Then 175 μL of CAMHB was added to the 5th, 8th and 11th columns, 75 μL of CAMHB to the 4th, 7th and 10th columns and 50 μL of CAMHB to the 3rd, 6th and 9th columns and the last column was the organism control.

[6] = system: Candida albicans (ATCC 10231); test: as above; assay type: cell-based; conditions: RPMI-1640, 25° C., 48 hours, pH 4.5-adjusted stock
Procedure: as §2

[7] = assay type: physicochemical; conditions: pH 4.5
Procedure: This water was used as a test media for determining the solubility of test/reference items. Stock solutions of concentration 1 mg/mL for test items/reference items was prepared in methanol. The stock solution will be used for preparation of calibration curve standards. Calibration curve of test/reference items was prepared by serially dilution consisting of 4-5-6 concentrations in 96 well format. […] The method was as follows: Calibration curve of test items were prepared by serial dilution consisting of 8 concentrations. […] Water, 50:50). […] 40 mg of test items were weighed into tubes. […] The initial pH of the solubility samples were recorded. […] Then, the solutions were observed visually for any precipitation. […] An aliquot of the supernatant were diluted with equal volume of methanol. […] The samples were then transferred to UV plate and scanned at λmax of that particular test/reference item. Compound #12 was transferred to auto-sampler vials and submitted for LC-MS/MS analysis.

[8] = Determination of Dissociation Constant (pKa) by Potentiometric Titration Method; assay type: physicochemical; conditions: 22° C.
Procedure: Potentiometric Titration Method: A calibrated pH meter was used for the assay. 50 mL solution of each test/reference item solution (0.1 mg/mL) was added to four beakers (two for acid titration and two for base titration). 0.1 N Sodium hydroxide (NaOH) solution was prepared as titrant solution. The pH electrode was placed into the beaker containing test/reference item solution. The initial pH of the solution will be recorded. 100 μL of 0.1 N NaOH was added successively with stirring and the pH at each addition was recorded. Base titrations were carried out individually in duplicates until a sudden shift in the pH was observed.

[9] = ultrapure water, pH 4.5, Table 3, 0.1 mg/ml

Row | Compound | MIC (%) S. Aureus ([1]; Table 1) [%] | MIC (%) P. aeruginosa ([2]; Table 1) [%] | MIC (%) B. cepacia ([3]; Table 1) [%] | MIC (%) E. coli ([4]; Table 1) [%] | MIC (%) A. brasiliensis ([5]; Table 1) [%] | MIC (%) C. albicans ([6]; Table 1) [%] | Solubility (wt %) [7] [wt %] | pKa ([8]; ultrapure water, pH 4.5, Table 1, 0.1 mg/ml) | MIC (%) S. Aureus ([1]; Table 4) [%] | MIC (%) P. aeruginosa ([2]; Table 4) [%] | MIC (%) B. cepacia ([3]; Table 4) [%] | MIC (%) E. coli ([4]; Table 4) [%] | MIC (%) A. brasiliensis ([5]; Table 4) [%] | MIC (%) C. albicans ([6]; Table 4) [%] | pKa [8, 9] | MIC (%) A. brasiliensis ([5]; Table 4, listed as #9) [%] | MIC (%) C. albicans ([6]; Table 4, listed as #9) [%] | pKa ([8]; pH 4.5, Table 3, 0.1 mg/ml)
1 | CC(O)COc1ccc(C(=O)O)cc1 (stereo not drawn) [Compound 7, 4-(2-hydroxypropoxy) benzoic acid] | 0.02 | 0.039 | 0.02 | 0.079 | >0.079 | >0.079 | 0.123 | 5.6 |  |  |  |  |  |  |  |  |  | 
2 | O=C(OCCO)c1ccccc1 [Compound 8, Benzoic acid 2-hydroxyethyl ester] |  |  |  |  |  |  | >1.0 |  | 0.475 | 0.237 | 0.118 | 0.475 | 0.118 | 0.475 | > 7 |  |  | 
3 | O=C(OCC(O)CO)c1ccccc1 (stereo not drawn) [Compound 9, Benzoic acid 2,3-dihydroxypropyl ester] |  |  |  |  |  |  | >1.0 |  | 0.25 | 0.5 | 0.25 | 0.5 | >1 | >1 | > 7 | > 1.0 | > 1.0 | 
4 | O=C(OCCCCO)c1ccccc1 [Compound 10, Benzoic acid 4-hydroxy-butyl ester] |  |  |  |  |  |  | 0.47 |  | 0.057 | 0.115 | 0.057 | 0.115 | 0.028 | 0.115 | > 7 |  |  | 
5 | O=C(OCCCO)c1ccccc1 [Compound 11, Benzoic acid 3-hydroxy-propyl ester] |  |  |  |  |  |  | 0.55 |  | 0.272 | >0.272 | 0.136 | 0.272 | 0.068 | 0.136 |  |  |  | > 7
6 | benzoic acid [reference compound] | 0.068 | 0.068 | 0.034 | 0.07 | 0.137 | 0.137 |  |  | 0.068 | 0.068 | 0.034 | 0.07 | 0.137 | 0.137 |  |  |  | 
